Measurements published in ChEMBL document CHEMBL1201862, “PubChem BioAssay data set” (2004).
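Growth conditions: 96-well plates. Treatment: test compound, 48 hours, 5 concentrations. Analysis: linear interpolation between bracketing concentrations; unreached endpoints set to highest concentration. GI50: concentration for 50% inhibition of growth.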 Active and inactive are the calls of the source. No stated cut-off is given here; in the data, active = GI50 up to about 1.1 µM and inactive = higher.

Experiments:
Assay in all cases: NCI tumour cell line growth inhibition, 48 h
[1] = tested on: A549
[2] = tested on: HOP-62
[3] = tested on: CCRF-CEM
[4] = tested on: K562
[5] = tested on: SF-539
[6] = tested on: MOLT-4
[7] = tested on: OVCAR-8
[8] = tested on: NCI-H226
[9] = tested on: SN12C
[10] = tested on: Malme-3M
[11] = tested on: NCI-H23
[12] = tested on: SF-295
[13] = tested on: SW-620
[14] = tested on: KM-20L2
[15] = tested on: HT-29
[16] = tested on: NCI-H460
[17] = tested on: 786-0
[18] = tested on: SR
[19] = tested on: SNB-75
[20] = tested on: ACHN
[21] = tested on: OVCAR-5
[22] = tested on: RXF 631
[23] = tested on: KM12
[24] = tested on: IGROV-1
[25] = tested on: HCC 2998
[26] = tested on: COLO 205
[27] = tested on: M14
[28] = tested on: DLD-1
[29] = tested on: RPMI-8226
[30] = tested on: HCT-116
[31] = tested on: NCI-H522
[32] = tested on: SNB-19
[33] = tested on: HCT-15
[34] = tested on: SK-OV-3
[35] = tested on: UO-31
[36] = tested on: DMS-114
[37] = tested on: LXFL 529
[38] = tested on: RXF 393
[39] = tested on: OVCAR-3
[40] = tested on: HL-60
[41] = tested on: OVCAR-4
[42] = tested on: EKVX
[43] = tested on: A498
[44] = tested on: U-251
[45] = tested on: UACC-62
[46] = tested on: TK-10
[47] = tested on: SK-MEL-28
[48] = tested on: M19-MEL
[49] = tested on: SF-268
[50] = tested on: UACC-257
[51] = tested on: SK-MEL-2
[52] = tested on: DU-145
[53] = tested on: NCI/ADR-RES
[54] = tested on: Hs-578T
[55] = tested on: T47D
[56] = tested on: LOX IMVI
[57] = tested on: MDA-MB-435
[58] = tested on: MDA-N
[59] = tested on: SK-MEL-5
[60] = tested on: CAKI-1
[61] = tested on: XF498
[62] = tested on: HOP-18
[63] = tested on: DMS-273
[64] = tested on: MDA-MB-231
[65] = tested on: SNB-78
[66] = tested on: PC-3
[67] = tested on: HOP-92
[68] = tested on: MCF7
[69] = tested on: BT-549

For `CC1=C(C)C(=O)C2=C(OCCCO2)C1=O`, the GI50 [1] was 81.8 µM (inactive), the GI50 [2] was > 100 µM (inactive) and the GI50 [3] was 2.43 µM (inactive). For the same compound, the GI50 [4] was 21.6 µM (inactive), the GI50 [5] was > 10 µM (inactive) and the GI50 [6] was 2.4 µM (inactive). The GI50 [7] was 18.7 µM (inactive), the GI50 [8] was > 10 µM (inactive) and the GI50 [9] was > 10 µM (inactive). The GI50 [10] was > 10 µM (inactive), the GI50 [11] was > 10 µM (inactive) and the GI50 [12] was 29.1 µM (inactive). The GI50 [13] was 17 µM (inactive), the GI50 [14] was 34.2 µM (inactive) and the GI50 [15] was 20.8 µM (inactive). The GI50 [16] was > 10 µM (inactive), the GI50 [17] was 19.2 µM (inactive) and the GI50 [18] was 21.9 µM (inactive). The GI50 [19] was 23.8 µM (inactive), the GI50 [20] was 18.4 µM (inactive) and the GI50 [21] was > 10 µM (inactive). For the same compound, the GI50 [22] was 17.7 µM (inactive), the GI50 [23] was > 10 µM (inactive) and the GI50 [24] was 18.2 µM (inactive). For the same compound, the GI50 [25] was 59.4 µM (inactive), the GI50 [26] was 34.2 µM (inactive) and the GI50 [27] was 17 µM (inactive). The GI50 [28] was > 10 µM (inactive), the GI50 [29] was 16.5 µM (inactive) and the GI50 [30] was > 10 µM (inactive). For the same compound, the GI50 [31] was 18 µM (inactive), the GI50 [32] was > 100 µM (inactive) and the GI50 [33] was over 100 µM. The GI50 [34] was > 100 µM (inactive), the GI50 [35] was 16.5 µM (inactive) and the GI50 [36] was 18.4 µM (inactive). The GI50 [37] was 18 µM (inactive), the GI50 [38] was > 10 µM (inactive) and the GI50 [39] was 18.1 µM (inactive). The GI50 [40] was 3.61 µM (inactive), the GI50 [41] was > 10 µM (inactive) and the GI50 [42] was 17.2 µM (inactive). For the same compound, the GI50 [43] was > 10 µM (inactive), the GI50 [44] was > 100 µM (inactive) and the GI50 [45] was 18.1 µM (inactive). The GI50 [46] was > 10 µM (inactive), the GI50 [47] was 35.6 µM (inactive) and the GI50 [48] was 17.9 µM (inactive). The GI50 [49] was 18.3 µM (inactive), the GI50 [50] was > 10 µM (inactive) and the GI50 [51] was > 10 µM (inactive).

With `O=C1C(NCCO)=C(N2CC2)C(=O)C(NCCO)=C1N1CC1` the GI50 [1] was 44.5 µM (inactive), the GI50 [52] was > 77.3 µM (inactive) and the GI50 [2] was 27.4 µM (inactive). For the same compound, the GI50 [3] was 17.9 µM (inactive), the GI50 [4] was 39.5 µM (inactive) and the GI50 [53] was > 100 µM (inactive). For the same compound, the GI50 [5] was 39.4 µM (inactive), the GI50 [54] was > 100 µM (inactive) and the GI50 [6] was 12.2 µM (inactive). The GI50 [7] was 37.1 µM (inactive), the GI50 [8] was 57.5 µM (inactive) and the GI50 [9] was 26.5 µM (inactive). For the same compound, the GI50 [10] was > 100 µM (inactive), the GI50 [11] was 29.2 µM (inactive) and the GI50 [55] was > 69.2 µM (inactive). For the same compound, the GI50 [56] was 17.1 µM (inactive), the GI50 [57] was > 100 µM (inactive) and the GI50 [12] was 26.5 µM (inactive). For the same compound, the GI50 [58] was > 60.4 µM (inactive), the GI50 [59] was 50 µM (inactive) and the GI50 [13] was 46.8 µM (inactive). The GI50 [60] was 85.9 µM (inactive), the GI50 [14] was > 100 µM (inactive) and the GI50 [15] was 49 µM (inactive). The GI50 [16] was 10.2 µM (inactive), the GI50 [17] was 24.4 µM (inactive) and the GI50 [18] was 16.8 µM (inactive). For the same compound, the GI50 [19] was 63.8 µM (inactive), the GI50 [61] was 53.3 µM (inactive) and the GI50 [20] was 30.8 µM (inactive). The GI50 [62] was > 100 µM (inactive), the GI50 [21] was 58.2 µM (inactive) and the GI50 [23] was 74.5 µM (inactive). For the same compound, the GI50 [24] was > 97.5 µM (inactive), the GI50 [25] was > 100 µM (inactive) and the GI50 [26] was > 67.6 µM (inactive). The GI50 [27] was 47.3 µM (inactive), the GI50 [28] was > 46.2 µM (inactive) and the GI50 [29] was 44.6 µM (inactive). The GI50 [30] was 29.6 µM (inactive), the GI50 [63] was 5.46 µM (inactive) and the GI50 [64] was > 90.4 µM (inactive). The GI50 [65] was > 100 µM (inactive), the GI50 [31] was 31.3 µM (inactive) and the GI50 [32] was 60.7 µM (inactive). For the same compound, the GI50 [33] was 57.5 µM, the GI50 [34] was > 70.6 µM (inactive) and the GI50 [35] was 51.9 µM (inactive). The GI50 [36] was 19.5 µM (inactive), the GI50 [66] was > 100 µM (inactive) and the GI50 [37] was > 51.6 µM (inactive). The GI50 [38] was 71.3 µM (inactive), the GI50 [39] was 33.7 µM (inactive) and the GI50 [67] was > 73.1 µM (inactive). For the same compound, the GI50 [40] was 13.2 µM (inactive), the GI50 [41] was > 57.4 µM (inactive) and the GI50 [42] was > 81.1 µM (inactive). For the same compound, the GI50 [68] was > 100 µM (inactive), the GI50 [43] was > 100 µM (inactive) and the GI50 [69] was > 69 µM (inactive). For the same compound, the GI50 [44] was 31.5 µM (inactive), the GI50 [45] was 25.1 µM (inactive) and the GI50 [46] was > 100 µM (inactive). For the same compound, the GI50 [47] was > 100 µM (inactive), the GI50 [48] was 28.5 µM (inactive) and the GI50 [49] was 30.8 µM (inactive). For the same compound, the GI50 [50] was > 74.3 µM (inactive) and the GI50 [51] was > 58.3 µM (inactive).
